Test system: CD19 positive tumor cells (Daudi, Raji)
Assay: Co-culture depletion of CD19 positive tumor cells by SMART-CAR expressing Jurkat T-cells, flow cytometry with CD19-FITC antibody
Type: cell-based
Protocol: FIG. 28 is a schematic depicting the experimental setup used in FIG. 18 to evaluate the ability of SMART-CAR expressing Jurkat cells to deplete CD19-positive tumor cells. SMART-CAR expressing Jurkat cells are incubated with CD19-positive target tumor cells at the indicated ratio for a given amount of time (Example 25). CD19-positive target tumor cell depletion can be monitored by measuring levels of CD19.
FIG. 30 is a schematic depicting the experimental setup used in FIG. 21 and described in Example 26 to illustrate the chemical control of SMART-CAR expression and subsequent activity against CD19 positive tumor cells using dFKBP7. SMART-CAR expressing Jurkat cells were pretreated with dFKBP7 at 250 nM for 4 hours to allow for maximal degradation of SMART-CAR. The Jurkat cells were then harvested and washed three times to remove dFKBP7. Jurkat cells were split into two experimental arms. The first arm (top, blue) was treated with DMSO control and the second arm (bottom, green) was retreated with 250 nM dFKBP7. The two experimental arms were then mixed at a 1:1 ratio with CD19 positive tumor cells and CD19-positive tumor cells monitored by flow cytometry.
FIG. 33 is a line plot tracking CD19 positive tumor cells during alternating exposure and removal of 250 nM of dFKBP7 in a 30 hour time course. […]
FIG. 28 illustrates the experimental design to evaluate the functionality of SMART-CAR expressing Jurkat T-cells to deplete CD19 positive target tumor cells. […] Co-cultured cells were pelleted, stained with a CD19-FITC antibody, fixed, and CD19 levels measured via flow cytometry.
SMART-CAR expressing Jurkat cells were pretreated with dFKBP7 at 250 nM for 4 hours to allow for maximal degradation of SMART-CAR. […] The two experimental arms were then mixed at a 1:1 ratio with CD19 positive tumor cells and CD19-positive tumor cells monitored by flow cytometry. […]
FIG. 32 is a graph that exemplifies the linear relationship between number of SMART-CAR expressing T-cells and functional killing of CD19 positive target tumor cells. […] CD19 positive tumor cells were then quantified using flow cytometry with a directly conjugated CD19-FITC antibody. […]

Structure (SMILES): CC[C@H](C(=O)N1CCCC[C@H]1C(=O)O[C@H](CCc1ccc(OC)c(OC)c1)c1cccc(OCC(=O)NCCCOCCOCCOCCCNC(=O)COc2cccc3c2C(=O)N(C2CCC(=O)NC2=O)C3=O)c1)c1cc(OC)c(OC)c(OC)c1 (stereo partly shown) [dFKBP7]
- CD19 positive target tumor cell depletion in the presence of dFKBP7 (1:3 ratio, 250 nM, 4 HR to 24 HR): halted
- CD19 positive target tumor cell depletion after removal of dFKBP7 (1:3 ratio, 24 HR-30 HR): rapid target tumor cell depletion
- Daudi cell depletion, dose response (CD19 positive Daudi cells, 1:3 ratio, 24 hours, indicated concentrations): Daudi cell depletion was rescued
- CD19 positive tumor cells (Daudi and Raji, 1:1 ratio, retreatment with 250 nM dFKBP7): not affected
